≈ marks a conversion by molar mass, not a printed value.
Assays:
Assay type in all cases: cell-based
[1] = tested on: ATCC13883 strain (Klebsiella pneumoniae); assay: Checkerboard antibacterial synergistic activity test with polymyxin E (FIC); parameters: key: FIC≤0.5 synergy; 0.5–1 additive; 1–2 indifferent; ≥2 antagonism; conditions: combined with polymyxin E
Summary of the method: (§1)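 Polymyxin E was diluted in MH broth to 16–0.015 μg/ml and the test compound to 256–4 μg/ml (two-fold series, pre-mixing concentrations), combined checkerboard-style in 96-well plates with bacterial suspension and blank controls, and incubated at 37° C. for 16 h. FIC ≤0.5 was scored synergistic, >0.5 to <1 additive, 1–2 indifferent, ≥2 antagonistic.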

[2] = tested on: ATCC19606 strain (Acinetobacter baumannii); assay: as above; parameters: key: FIC≤0.5 synergy; 0.5–1 additive; 1–2 indifferent; ≥2 antagonism; conditions: combined with polymyxin E
Summary of the method: as §1

[3] = tested on: ATCC25922 strain (Escherichia coli); assay: as above; parameters: key: FIC≤0.5 synergy; 0.5–1 additive; 1–2 indifferent; ≥2 antagonism; conditions: combined with polymyxin E
Summary of the method: as §1

[4] = tested on: ATCC9027 strain (Pseudomonas aeruginosa); assay: as above; parameters: key: FIC≤0.5 synergy; 0.5–1 additive; 1–2 indifferent; ≥2 antagonism; conditions: combined with polymyxin E
Summary of the method: as §1

[5] = tested on: ATCC13883 strain (Klebsiella pneumoniae); assay: Broth microdilution, antibacterial activity of the compound used alone; conditions: for MIC: read-out: Antibacterial activity of the compound of Formula I, ATCC13883
Description: (§2) The broth microdilution method was used to test the antibacterial effects of the compounds of the present invention against various Gram-negative bacterial strains when used alone.

[6] = tested on: ATCC19606 strain (Acinetobacter baumannii); assay: as above; conditions: for MIC: read-out: Antibacterial activity of the compound of Formula I, ATCC19606
Description: as §2

[7] = tested on: ATCC25922 strain (Escherichia coli); assay: as above; conditions: for MIC: read-out: Antibacterial activity of the compound of Formula I, ATCC25922
Description: as §2

[8] = tested on: ATCC9027 strain (Pseudomonas aeruginosa); assay: as above; conditions: for MIC: read-out: Antibacterial activity of the compound of Formula I, ATCC9027
Description: as §2

SMILES	Synergistic activity (FIC value) ATCC13883 [1]	Synergistic activity (FIC value) ATCC19606 [2]	Synergistic activity (FIC value) ATCC25922 [3]	Synergistic activity (FIC value) ATCC9027 [4]	Antibacterial activity of the compound of Formula I, ATCC13883 [5] [µg/mL]	Antibacterial activity of the compound of Formula I, ATCC19606 [6] [µg/mL]	Antibacterial activity of the compound of Formula I, ATCC25922 [7] [µg/mL]	Antibacterial activity of the compound of Formula I, ATCC9027 [8] [µg/mL]	MIC [5] [µg/mL]	MIC [6] [µg/mL]	MIC [7] [µg/mL]	MIC [8] [µg/mL]
CS(=O)(=O)c1ccc(Oc2ccccc2Cl)cc1-c1nc(N=C2NCCCN2)sc1Cl [Compound I-155]	0.16	0.03	0.18	0.28	128	256	128	64	–	–	–	–
CC(C)(C)c1ccc(-c2c[nH]c(N=C(N)N)n2)cc1 [Compound I-12]	0.25	0.28	0.5	0.63	256	256	256	256	–	–	–	–
NC(N)=Nc1nc(-c2ccccc2-c2ccccc2)co1 [Compound I-73]	1.25	0.25	1.25	0.52	256	256	256	256	–	–	–	–
NC(N)=Nc1nc(-c2cc(I)cc(I)c2)c[se]1 [Compound I-34]	1.25	0.75	1.25	1.25	256	256	256	256	–	–	–	–
NC(N)=Nc1nc(-c2ccccc2[N+](=O)[O-])c[nH]1 [Compound I-20]	0.63	0.75	0.5	0.56	256	256	256	256	–	–	–	–
CCc1sc(N=C(N)N)nc1-c1ccccc1-c1ccncn1 [Compound I-77]	0.52	0.52	0.63	1.25	256	256	256	256	–	–	–	–
CSc1cc2c(C)cccn2c1-c1c[se]c(N=C2NCCCN2)n1 [Compound I-191]	0.19	0.13	0.52	0.51	256	256	256	256	–	–	–	–
NC(N)=Nc1nc(-c2cc(Cl)cc3c2Cc2ccc(Cl)cc2-3)cs1 [Compound I-116]	0.63	0.25	0.5	1.25	256	256	256	256	–	–	–	–
Cc1cc(-c2csc(N=C3NCCCN3)n2)cc(C)c1O [Compound I-173]	0.38	0.75	0.5	0.63	256	256	256	256	–	–	–	–
NC(N)=Nc1nc(-c2cccc(NC(=O)Nc3ccccc3)c2)cs1 [Compound I-131]	0.09	0.31	0.14	0.06	–	–	–	–	256 (≈ 726 µM)	256 (≈ 726 µM)	256 (≈ 726 µM)	256 (≈ 726 µM)
CC(=O)N(C)c1cccc(-c2csc(N=C(N)N)n2)c1 [Compound I-30]	0.19	0.13	0.52	1.25	256	256	256	256	–	–	–	–
CC(=O)c1ccc(-c2csc(N=C(N)N)n2)cc1 [Compound I-24]	1.25	0.5	1.25	1.25	256	256	256	256	–	–	–	–
O=C(Nc1ccccc1)Nc1cccc(-c2nc(N=C3NCCCN3)sc2Br)c1 [Compound I-198]	1.25	0.75	0.5	1.25	128	256	128	64	–	–	–	–
Cc1sc(N=C(N)N)nc1-c1cccc(S(C)(=O)=O)c1-c1ccccn1 [Compound I-76]	0.63	0.75	0.5	0.56	256	256	256	256	–	–	–	–
NC(N)=Nc1nc(-c2ccc(O)c(CO)c2)cs1 [Compound I-121]	1.25	1.25	0.56	1.25	–	–	–	–	256 (≈ 969 µM)	256 (≈ 969 µM)	256 (≈ 969 µM)	256 (≈ 969 µM)

Source: patent US20260250257A1, “ANTIBACTERIAL AND SYNERGISTIC ACTIVE COMPOUND AND USE THEREOF” (EAST CHINA UNIVERSITY OF SCIENCE AND TECHNOLOGY, priority 2023, published 2026)
